Laboratory results as given in patent publication US20220250063A1, “ASSAY SYSTEM, METHODS, AND MULTI-WELL PLATE FOR GAS STIMULATION OF BIOLOGICAL CELLS, PROTEINS OR MATERIALS” (Koniku Inc., priority 2021, published 2022).

Tested on: odorant receptor of the modified cells
Assay: Gas stimulation of modified cells expressing different odorant receptors in a 96 well microplate, fluorescence recorded by camera
Format: cell-based
Conditions: sample as gas in the gas channel of 96 well microplate 80; for fluorescent response of the responding wells: different ORs in different wells, responding wells (81A: one well; 81C: four wells; 81E: two wells); for fluorescent response of all of the other wells: remaining dark wells (81B: 95 wells; 81D: 92 wells; 81F: 94 wells)
From the text: In a representative example of operation, an empty microplate is placed in the hatch 120 by a technician or automatically using a microplate loader/unloader. The microplate is moved to the disk support, with the wells aligned with the pipettes. The pipetting head holding the pipettes is lowered to position the tips of the pipettes in or near the wells. The pipettes deposit liquid containing cells into the wells. Inlet and outlet gas nozzles or fittings engage the gas channel inlet and outlet in the microplate. In some embodiments, there are more than one inlets and outlets that correspond to the number of channels and number of samples injected. Gas containing a VOC or other candidate molecule or compound sample is injected through the gas channel of the microplate. This may be done manually or via automation.
If the VOC or other candidate molecule or compound in the sample binds and activates the odorant receptor expressed by the cells, a signal is emitted (e.g., emission of fluorescent or luminescent light). The signal is detected by the camera 128 via the optical unit 126. The computer 138 analyzes and records the location (i.e., the well number or position), the intensity, time duration, color, and/or other parameters of the fluorescent light, along with data on the VOC or other candidate molecule or compound momentarily passing through the microplate. The computer 138 may calculate the mean of the pixels for each well in each of the images.
FIG. 14 is an image as recorded by the camera 128 with a sample of benzaldehyde provided into the gas channel of a 96 well microplate 80.
The microplate 80 shown in FIGS. 14-16 has different cells in different wells. As shown, the odorant receptors of different cells bind to different compounds. In each well of the 96 well microplate 80, the cells expressed the same OR. Different ORs were provided into different wells. […] This allows determination of which ORs may best detect menthol. It may also allow for genetically fine tuning the receptors.

| SMILES | fluorescent response of the responding wells | fluorescent response of all of the other wells |
| --- | --- | --- |
| CCCCCc1ccco1 [2-pentylfuran] | strong fluorescent responses | no fluorescent response |
| CC1CCC(C(C)C)C(O)C1 (stereo not drawn) [menthol] | strong fluorescent responses | no fluorescent response |
| O=Cc1ccccc1 [benzaldehyde] | strongly fluorescing | not at all |
